From publication PMC3025922 (BMC Biology, 2010)
Several values for one entry are separate records, joined by “and”; a condition that tells them apart may be missing. Equal entries are not always repeated. Where two headings read alike, the source gives them in different places.

Columns and labels:
[1] = tested on: p27 protein levels in HeLa cells; test: Immunoblot quantification of p27, HeLa; type: cell-based, human
Experimental: (§1) Total cell lysate from cells treated with vehicle (DMSO) or compounds were obtained by incubating cells in lysis buffer (25 mM Tris-HCl pH 7.4, 150 mM NaCl, 0.5% Triton X-100, protease inhibitors) for 15 min at 4°C. The supernatant was collected by centrifugation and the amount of protein was determined with a Bio-Rad protein assay (Bio-Rad) using BSA as standard. Equal amounts of protein were subjected to SDS-PAGE (4%-20% gels, Invitrogen) and transferred to PVDF membranes. The membranes were blocked with TBST (50 mM Tris-HCl pH 7.5, 150 mM NaCl, 0.05% Tween-20) containing 5% non-fat dry milk or bovine serum albumin (BSA) for 1 h at room temperature, followed by incubation in primary antibodies 4°C overnight. Membranes were washed and incubated with secondary antibodies conjugated to HRP (Jackson ImmunoResearch Laboratories) for 1 h at room temperature. Signals were visualized using the ECL Western Blotting Substrate (Pierce Biotechnology, IL, USA) according to the manufacturer's instructions. Membranes were stripped using Restore™ Western Blot Stripping Buffer (Pierce Biotechnology). Films were scanned and quantification of the bands was performed using Image J software http://rsbweb.nih.gov/ij/.

DU145 cells [2] = test: MTT cytotoxicity assay, DU145; settings: Homo sapiens, read-out: IC50 (MTT cytotoxicity)
Experimental: (§3) LNCaP-S14 (10,000 cells), PC3, DU145 or IMR90 cells (5000 cells) were seeded in 96-well plates and treated with increasing concentrations of the respective SMIPs for 72 h. Cell viability was assessed using the MTT cell proliferation assay (ATCC®, Middlesex, UK) according to the manufacturer's protocol. IC50 was calculated using the BioDataFit 1.02 software http://www.changbioscience.com/stat/ec50.html.

DU145 cells [3] = test: Cell cycle analysis by flow cytometry, DU145; type: cell-based, human
Experimental: (§2) Cells were exposed to SMIPs (40 μM) for 24 h and 48 h. Cells were trypsinized, washed with PBS and suspended in 600 μL PBS. Cells were fixed by adding 1.4 mL cold absolute ethanol and kept at -20°C for at least 12 h. After washing once with PBS, the cells were resuspended in 250 μL PBS containing 2.5 μg RNAse A and incubated for 45 min at room temperature. Staining was done by adding 40 μg/mL of propidium iodine followed by incubation for 15 min at room temperature. DNA-bound fluorescence was read at 564 to 606 nm using FACSort and FACSCanto flow cytometers (BD Biosciences) at the Flow Cytometry Facility of the Sanford-Burnham Medical Research Institute. Distribution of cells in the different cell cycle phase was determined with ModFit LT 3.2.1 or FlowJo 8.6 software. Aggregates were excluded from the analysis manually using pulse shape or identified by automated modelling in ModFit LT.

IMR90 cells = test: Cell cycle analysis by flow cytometry, IMR90; type: cell-based, human
Experimental: as §2

[4] = tested on: p27 protein levels in IMR90 cells; test: Immunoblot quantification of p27, IMR90; type: cell-based, human
Experimental: as §1

[5] = tested on: p27 protein levels in DU145 cells; test: Immunoblot quantification of p27, DU145; type: cell-based, human
Experimental: as §1

[6] = tested on: p21 protein levels in IMR90 cells; test: Immunoblot quantification of p21, IMR90; type: cell-based, human
Experimental: as §1

LNCaP-S14 cells [7] = test: Cell Death Detection ELISA (cytoplasmic histone-associated DNA fragments); type: cell-based, human
Experimental: Apoptosis was measured using the Cell Death Detection ELISA (Roche, Basel, Switzerland) following the manufacturer's instructions. Briefly, LNCaP-S14 cells (0.1 × 10^6) were seeded in 12-well plates and treated with SMIPs (40 μM) for 24 h. Cells were collected in medium, spun at 1000 rpm, and resuspended in 1 mL PBS at the specified time points (day 1 to day 3). The cell suspension was divided into two parts. The first half was used for determination of cytoplasmic histone-associated DNA fragments (ELISA), the second for protein determination to normalize the ELISA data to the amount of input protein.

[8] = tested on: p21 protein levels in DU145 cells; test: Immunoblot quantification of p21, DU145; type: cell-based, human
Experimental: as §1

PC3 cells = test: MTT cytotoxicity assay, PC3; settings: Homo sapiens, read-out: IC50 (MTT cytotoxicity)
Experimental: as §3

[9] = tested on: p27 protein levels in LNCaP-S14 cells; test: Immunoblot quantification of p27, LNCaP-S14; type: cell-based, human
Experimental: as §1

[10] = tested on: p27 stability in LNCaP-S14 cells; test: Protein half-life by cycloheximide chase; type: cell-based, human; settings: LNCaP-S14, 40 μM SMIPs 18 h, then cycloheximide 100 μg/mL; DMSO ~ 1.29 h
Experimental: LNCaP-S14 cells were treated with SMIPs (40 μM) for 18 h followed by the addition of 100 μg/mL cycloheximide (CHX). Cell extracts were obtained as described above at different times after CHX addition. Protein lysate was subjected to SDS-PAGE and immunoblotting for p27, p21 and SKP2. Tubulin was used as loading control. Protein half-lives were calculated using a web based calculator http://www.1728.com/halflife.htm.

[11] = tested on: p21 protein levels in LNCaP-S14 cells; test: Immunoblot quantification of p21, LNCaP-S14; type: cell-based, human
Experimental: as §1

LNCaP-S14 cells [12] = test: Cell cycle analysis by flow cytometry, LNCaP-S14; type: cell-based, human
Experimental: as §2

[13] = tested on: p21 protein levels in PC3 cells; test: Immunoblot quantification of p21, PC3; type: cell-based, human
Experimental: as §1

[14] = MTT cytotoxicity assay, IMR90; type: cell-based; settings: human, IMR90 normal fibroblasts
Experimental: as §3

LNCaP cells = test: Cell cycle analysis by flow cytometry, LNCaP; type: cell-based, human
Experimental: as §2

LNCaP-WT cells = test: MTT cytotoxicity assay, LNCaP-WT; settings: Homo sapiens, read-out: IC50 (MTT cytotoxicity)
Experimental: as §3

[15] = tested on: p21 protein levels in LNCaP cells; test: Immunoblot quantification of p21, LNCaP; type: cell-based, human
Experimental: as §1

SMILES: CC(C)(C)c1cc2cc(NC(=O)c3cccs3)ccc2[nH]1 [SMIP001]
- p27 protein level (immunoblot, DMSO = 1.0) [1]: 1.1 ± 0.1
- IC50 (DU145 cells [2]; DU-145, 72 h): ~40 µM
- IC50 (DU145 cells [2]; DU-145, 96 h): 32.5 µM
- Cell cycle distribution G1 (DU145 cells [3]): 65.6 and 71.1
- Cell cycle distribution G2 (DU145 cells [3]): 9.7 and 13.6
- Cell cycle distribution S (DU145 cells [3]): 23.9 and 13.4
- Cell cycle distribution G1 (IMR90 cells): 68.4 and 77.0
- Cell cycle distribution G2 (IMR90 cells): 15.3 and 14.1
- Cell cycle distribution S (IMR90 cells): 16.2 and 8.9
- p27 protein level (immunoblot, DMSO = 1.0) [4]: 1.0 ± 0.0
- p27 protein level (immunoblot, DMSO = 1.0) [5]: 1.1 ± 0.2
- p21 protein level (immunoblot, DMSO = 1.0) [6]: 1.1 ± 0.0
- increase in the amount of mono and oligonucleosomes (LNCaP-S14 cells [7]): three- to fivefold
- p21 protein level (immunoblot, DMSO = 1.0) [8]: 1.1 ± 0.3
- IC50 (PC3 cells; PC-3, 72 h): ~80 µM
- IC50 (PC3 cells; PC-3, 96 h): 80 µM
- p27 protein level (immunoblot, DMSO = 1.0) [9]: 1.9 ± 0.5
- p27 half-life [10]: No effect
- p21 protein level (immunoblot, DMSO = 1.0) [11]: 2.0 ± 0.6
- Cell cycle distribution G1 (LNCaP-S14 cells [12]): 84.8 and 86.8
- Cell cycle distribution G2 (LNCaP-S14 cells [12]): 6.3 and 3.5
- Cell cycle distribution S (LNCaP-S14 cells [12]): 7.2 and 6.9
- p21 protein level (immunoblot, DMSO = 1.0) [13]: 1.1 ± 0.5
- IC50 at 72 h ([14]; IMR90, 0.01 - 40 μM): > 20 µM
- IC50 at 72 h ([14]; IMR90, 0.01 - 80 μM): 40 to 80 µM
- IC50 at 96 h ([14]; IMR90, 0.01 - 80 μM, 96 h): 40 to 80 µM
- Cell cycle distribution G1 (LNCaP cells): 84.5 and 83.6
- Cell cycle distribution G2 (LNCaP cells): 7.6 and 6.6
- Cell cycle distribution S (LNCaP cells): 6.6 and 8.5
- IC50 (LNCaP-WT cells; 72 h): 47.1 µM
- IC50 (LNCaP-WT cells; 96 h): 32.7 µM
- p21 protein level (immunoblot, DMSO = 1.0) [15]: 1.7 ± 0.6
